Test results as given in article PMC5607265, “Design, synthesis and structure-activity relationship of 3,6-diaryl-7H-[1,2,4]triazolo[3,4-b][1,3,4]thiadiazines as novel tubulin inhibitors” (Scientific Reports, 2017).
“Also recorded” adds a separate entry of the source. Read-outs that look alike come from different tables or passages of the source.

Tests used:
[1] = tested on: lung adenocarcinoma A549 cells; test: MTT antiproliferative assay, A549; type: cell-based, human; details: read-out: IC50 A549
Protocol: (§1) The SGC-7901, A549 and HT-1080 cell lines were purchased from the American Type Culture Collection (ATCC, Manassas, VA, USA). […] Briefly, approximately 3 × 10^4 cells were seeded in a 96-well plate. After 24 h of incubation at 37 °C, cells were exposed to compounds of differing concentrations for 24 h. After treatment, cells were washed with 1X PBS followed by addition of 100 µL of 0.05% MTT reagent to each well, followed by incubation for 4 h at 37 °C. After incubation, the supernatant from each well was carefully removed and the formazan crystals were dissolved in 100 µL of DMSO. The colour density was measured spectrophotometrically at 490 nm using a microplate reader (SpectraMax Plus384, Molecular Devices Corp., USA). The data were calculated and plotted as percent viability compared to control.
as §1

[2] = tested on: SGC-7901, A549 and HT-1080 cell lines; test: MTT antiproliferative assay, span over the three cell lines; type: cell-based, human; details: for antiproliferative activity in words: SGC-7901, A549 and HT-1080; for IC50: read-out: IC50 range against the three human cancer cell lines
Protocol: as §1, §1

[3] = tested on: fibrosarcoma HT-1080 cells; test: MTT antiproliferative assay, HT-1080; type: cell-based, human; details: read-out: IC50 HT-1080
Protocol: as §1, §1

[4] = tested on: gastric adenocarcinoma SGC-7901 cells; test: MTT antiproliferative assay, SGC-7901; type: cell-based, human; details: read-out: IC50 SGC-7901
Protocol: as §1, §1

[5] = target: T1, highly purified tubulin from porcine brain (Sus scrofa, UniProt P02554); test: Tubulin polymerization assay; type: biochemical; details: CA-4 0.5-4 µM, 6i 0.1-8.0 µM, paclitaxel 5.0 µM, 37 °C
T1 construct: highly purified tubulin from porcine brain; purchased Cytoskeleton BK011P; host or cells: porcine brain (tissue-purified)
Protocol: This assay uses highly purified tubulin from porcine brain.
The reaction was monitored at 37 °C.
(§2) Tubulin polymerization assay[33] was conducted with reagents as described in the kit manufacturer (Cytoskeleton, Cat.#BK011P) in a 96-well plate. In brief, tubulin was re-suspended in ice-cold G-PEM buffer (80 mM PIPES, 2 mM MgCl2, 0.5 mM EGTA, 1 mM GTP, 20% (v/v) glycerol) and added to wells on a 96-well plate containing the designated concentration of drugs or vehicle. Samples were mixed well, and tubulin assembly was monitored (emission wavelength: 450 ± 20 nm; excitation wavelength: 360 ± 20 nm) at 1 min intervals for 90 min at 37 °C in a SpectraMax 340PC spectrophotometer (Biotek Synergy HT, Winooskin, VT, USA). IC50 values were calculated from data at the 20 min time point using GraphPad Prism software. Experiments were repeated three times.
as §2, with “assay” for “assay[33]”, “450±20” for “450 ± 20”, “360±20” for “360 ± 20”, “timepoint” for “time point”

HCT116 = tested on: HCT116; parameters: method as in Org. Biomol. Chem. 2005, 3, 2657-2660; details: ref Org. Biomol. Chem. 2005, 3, 2657-2660; cited from earlier work
[6] = Homo sapiens, A549, MTT assay, 24 h exposure, triplicate
[7] = Homo sapiens, HT-1080, MTT assay, 24 h exposure, triplicate
[8] = Homo sapiens, SGC-7901, MTT assay, 24 h exposure, triplicate
[9] = MTT assay, 24 h exposure, triplicate

T1 sequence (P02554 whole entry): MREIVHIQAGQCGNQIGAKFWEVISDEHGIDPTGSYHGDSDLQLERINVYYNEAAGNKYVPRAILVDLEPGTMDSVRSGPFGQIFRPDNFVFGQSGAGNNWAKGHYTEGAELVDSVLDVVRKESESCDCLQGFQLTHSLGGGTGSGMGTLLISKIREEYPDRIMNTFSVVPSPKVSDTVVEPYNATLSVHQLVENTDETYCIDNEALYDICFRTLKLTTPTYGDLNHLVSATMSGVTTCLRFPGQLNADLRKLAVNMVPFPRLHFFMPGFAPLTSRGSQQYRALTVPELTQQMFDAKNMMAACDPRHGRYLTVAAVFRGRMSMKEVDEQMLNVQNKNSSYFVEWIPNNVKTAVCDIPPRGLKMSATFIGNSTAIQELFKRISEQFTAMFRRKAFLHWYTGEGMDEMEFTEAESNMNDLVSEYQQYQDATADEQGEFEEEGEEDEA
T1 sequence (P02550 whole entry partner): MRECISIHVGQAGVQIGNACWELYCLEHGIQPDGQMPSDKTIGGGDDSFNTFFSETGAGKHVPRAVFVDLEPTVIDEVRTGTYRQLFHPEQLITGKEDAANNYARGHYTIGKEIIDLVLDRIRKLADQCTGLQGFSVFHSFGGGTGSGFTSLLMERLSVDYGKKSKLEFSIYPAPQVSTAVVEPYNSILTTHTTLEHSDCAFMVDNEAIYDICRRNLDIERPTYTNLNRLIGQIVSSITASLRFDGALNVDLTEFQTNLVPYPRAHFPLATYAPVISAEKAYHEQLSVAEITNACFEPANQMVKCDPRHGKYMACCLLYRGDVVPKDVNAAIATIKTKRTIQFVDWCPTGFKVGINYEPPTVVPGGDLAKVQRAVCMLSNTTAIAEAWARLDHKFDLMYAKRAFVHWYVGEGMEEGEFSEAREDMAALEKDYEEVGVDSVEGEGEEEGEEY

Structure (SMILES)	melting point [°C]	IC50 [1, 6] [nM]	antiproliferative activity in words ([2]; MTT assay)	IC50 [3, 7] [nM]	IC50 [4, 8] [nM]	other results
COc1ccc(-c2nnc3n2N=C(c2ccc(OC)c(N)c2)CS3)cc1 [Compound 6k, 3-(4-Methoxyphenyl)-6-(3-amino-4-methoxyphenyl)-7H-[1,2,4]triazolo[3,4-b][1,3,4]thiadiazine]	214 to 215	38	nanomolar IC50 values against all tested cells; also recorded: IC50 values at the nanomolar level	23	36	
COc1ccc(C2=Nn3c(nnc3-c3cc(OC)c(OC)c(OC)c3)SC2)cc1O [Compound 5i, 3-(3,4,5-Trimethoxyphenyl)-6-(3-hydroxy-4-methoxyphenyl)-7H-[1,2,4]triazolo[3,4-b][1,3,4]thiadiazine]	95 to 97		IC50 values at the nanomolar level			IC50 ([1]; Homo sapiens, A549, 24 h): 71 nM; IC50 ([2]; Homo sapiens): 26 to 71 nM; IC50 ([3]; Homo sapiens, HT-1080, 24 h): 47 nM; IC50 ([4]; Homo sapiens, SGC-7901, 24 h): 26 nM
COc1ccc(C2=Nn3c(nnc3-c3ccc(OC)c(OC)c3)SC2)cc1N [Compound 6g, 3-(3,4-Dimethoxyphenyl)-6-(3-amino-4-methoxyphenyl)-7H-[1,2,4]triazolo[3,4-b][1,3,4]thiadiazine]	213 to 215	32	IC50 values at the nanomolar level	18	23	antiproliferative activity in words ([2]; MTT assay, listed as 6 g): nanomolar IC50 values against all tested cells
COc1ccc(C2=Nn3c(nnc3-c3ccc4c(c3)OCO4)SC2)cc1N [Compound 6c, 3-(3,4-Methylenedioxyphenyl)-6-(3-amino-4-methoxyphenyl)-7H-[1,2,4]triazolo[3,4-b][1,3,4]thiadiazine]	88 to 90	26	nanomolar IC50 values against all tested cells; also recorded: IC50 values at the nanomolar level	21	18	
CC(=O)O[C@H]1C(=O)[C@@]2(C)[C@H]([C@H](OC(=O)c3ccccc3)[C@]3(O)C[C@H](OC(=O)[C@H](O)[C@@H](NC(=O)c4ccccc4)c4ccccc4)C(C)=C1C3(C)C)[C@]1(OC(C)=O)CO[C@@H]1C[C@@H]2O [paclitaxel, reference compound]						effect on tubulin polymerization in words [5]: could distinctly promoted this process
COc1ccc(/C=C/C=C\c2cc(OC)c(OC)c(OC)c2)cc1O [vinylogous CA-4 (Z,E), vinylogous CA-4]						IC50 (HCT116): 163 nM
COc1ccc(-c2nnc3n2N=C(c2ccc(C)cc2)CS3)c(OC)c1OC [Compound 4d, 3-(2,3,4-Trimethoxyphenyl)-6-(4-methyphenyl)-7H-[1,2,4]triazolo[3,4-b][1,3,4]thiadiazine]			IC50 values at the nanomolar level			IC50 [1, 9]: 73 nM; IC50 ([2]; range over SGC-7901, A549 and HT-1080, MTT assay): 28 to 73 nM; IC50 [3, 9]: 28 nM; IC50 [4, 9]: 66 nM
COc1ccc(C2=Nn3c(nnc3-c3ccc4c(c3)OCO4)SC2)cc1O [Compound 6e, 3-(3,4-Methylenedioxyphenyl)-6-(3-hydroxy-4-methoxyphenyl)-7H-[1,2,4]triazolo[3,4-b][1,3,4]thiadiazine]	85 to 87	79	nanomolar IC50 values against all tested cells; also recorded: IC50 values at the nanomolar level	35	37	
COc1ccc(C2=Nn3c(nnc3-c3ccc(OC)c(OC)c3OC)SC2)cc1N [Compound 4j, 3-(2,3,4-Trimethoxyphenyl)-6-(3-amino-4-methoxyphenyl)-7H-[1,2,4]triazolo[3,4-b][1,3,4]thiadiazine]	93 to 94		only moderate activity			IC50 ([1]; Homo sapiens, A549, 24 h): 1580 nM; IC50 ([3]; Homo sapiens, HT-1080, 24 h): 890 nM; IC50 ([4]; Homo sapiens, SGC-7901, 24 h): 1570 nM
COc1ccc(C2=Nn3c(nnc3-c3ccc(OC)c(OC)c3OC)SC2)cc1O [Compound 4l, 3-(2,3,4-Trimethoxyphenyl)-6-(3-hydroxy-4-methoxyphenyl)-7H-[1,2,4]triazolo[3,4-b][1,3,4]thiadiazine]	88 to 89	7730	only moderate activity	630	16300	
